Assay results taken from patent US9648878B2, “Herbicidal agents containing flufenacet” (BAYER CROPSCIENCE AG, priority 2012, dated 2017).

Key:
[1] = system: LOLSS resistant to HRAC group B; test: Greenhouse post-emergence herbicidal action on resistant Lolium biotype (HRAC group B resistant); assay type: in vivo, Lolium spp.; settings: post-emergence (PO, BBCH 11); dose g of AS/ha: flufenacet 60, aclonifen 150, diflufenican 37.5, (A)+(B)+(C) 60+150+37.5, pinoxaden+cloquintocet-mexyl 60+15, mesosulfuron+iodosulfuron+mefenpyr 15+3+45
Description: (§1) In the standard implementation of the test, seeds of various broad-leaved weed and weed grass biotypes (origins) were sown in an 8-13 cm diameter pot filled with natural soil of a standard field soil (loamy silt; non-sterile) and covered with a covering soil layer of about 1 cm. The pots were then cultivated in a greenhouse (12-16 h light, temperature day 20-22° C., night 15-18° C.) until the time of application. The pots were treated on a laboratory track sprayer with spray liquors comprising the compositions according to the invention, mixtures of the prior art or the components applied individually. Application of the active compounds or active compound combinations formulated as WG, WP, EC or otherwise was carried out at the appropriate growth stages of the plants. The amount of water used for spray application was 100-600 I/ha. After the treatment, the plants were returned to the greenhouses.
(§2) About 3 weeks after the application, the soil action or/and foliar action was assessed visually according to a scale of 0-100% in comparison to an untreated comparative group: 0%=no noticable effect compared to the untreated comparative group; 100%=full effect compared to the untreated comparative group.
(§3) 2. Post-emergence action against weeds: seeds of various broad-leaved weed and weed grass biotypes (origins) were sown in an 8-13 cm diameter pot filled with natural soil of a standard field soil (loamy silt; non-sterile) and covered with a covering soil layer of about 1 cm. […]
(§4) Insofar as herbicidal effects of the compositions according to the invention compared to mixtures of the prior art or compared to components applied individually against economically important mono- and dicotyledonous harmful plants were the center of attention, the synergistic herbicidal activities were calculated using Colby's formula (cf. S. R. Colby; Weeds 15 (1967), 20-22): E^C=(A+B+C)−(A×B+A×C+B×C)/100+(A×B×C)/10000 […]
(§5) Δ=difference (%) of the measured value (%) to the expected value (%) (measured value minus expected value) […]

[2] = system: LOLSS resistant to HRAC group A; test: Greenhouse post-emergence herbicidal action on resistant Lolium biotype (HRAC group A resistant); assay type: in vivo, Lolium spp.; settings: post-emergence (PO, BBCH 11); dose g of AS/ha: flufenacet 60, aclonifen 150, diflufenican 37.5, (A)+(B)+(C) 60+150+37.5, pinoxaden+cloquintocet-mexyl 60+15, mesosulfuron+iodosulfuron+mefenpyr 15+3+45
Description: as §1, §2, §3, §4, §5

Compound	herbicidal effect (visual score 0-100% vs untreated), LOLSS resistant to HRAC group B [1] [%]	herbicidal effect (visual score 0-100% vs untreated), LOLSS resistant to HRAC group A [2] [%]
CC(C)N(C(=O)COc1nnc(C(F)(F)F)s1)c1ccc(F)cc1 [flufenacet (A), N-(4-fluorophenyl)-N-(1-methylethyl)-2-[[5-(trifluoromethyl)-1,3,4-thiadiazol-2-yl]oxy]acetamide]	60	18
Nc1c([N+](=O)[O-])ccc(Oc2ccccc2)c1Cl [aclonifen (B), 2-chloro-6-nitro-3-phenoxybenzenamine]	38	5
O=C(Nc1ccc(F)cc1F)c1cccnc1Oc1cccc(C(F)(F)F)c1 [diflufenican (C), N-(2,4-difluorophenyl)-2-[3-(trifluoromethyl)phenoxy]-3-pyridinecarboxamide]	35	23
